Here are results for 15 compounds from patent publication US12157749B2, “Borate-based drug and use thereof” (Chengdu Origin Biotechnology Limited Company, priority 2018, dated 2024).

The subject of assay [1] is human multiple myeloma cells RPMI-8226. The experiment in a line: Activity test on human multiple myeloma cells RPMI-8226 (CCK-8, GI50). The assay is classed as cell-based. To be noted: RPMI 8226 cells, 48 h incubation. How it is done:
(§1) Cells RPMI-8226 (human multiple myeloma cells from ATCC (American type culture collection), ATCC CCL-155) and cells MM.1S (human multiple myeloma cells from ATCC (American type culture collection), ATCC CRL-2974) were cultured to logarithmic growth phase in RPMI 1640 medium containing 10% fetal bovine serum at 37° C. and 5% CO2. The cells were inoculated into 96-well culture plates in proper quantity per well. After culturing at 37° C. and 5% CO2 for 24 h, solvent control DMSO or test compounds dissolved in DMSO were added to the wells, wherein the starting concentration of the test compounds were […], and diluted 3-fold each time for a total of 6 times to obtain 6 concentration gradients. The cells were incubated together with the test compounds at 37° C. and 5% CO2 for 48 h. CCK-8 reagent was added to each well and the cells were incubated at 37° C. for 2 h according to the reagent instructions, and the optical density value of each well was read with spectrophotometer at 450 nm wavelength.
(§2) The optical density value of the cells was set as Tz value when the drugs had null action on the cell, which represented the cell value when the drugs were added. The optical density values of the cells were set as C value after the cells were acted by solvent control DMSO for 48 h; and the optical density values of the cell were set as Ti value after the cells were acted by the test compounds for 48 h. According to the method proposed by NIH—NCI in the United States, the cells' response to drugs was calculated as follows: [(Ti−Tz)/(C−Tz)]×100 when Ti≥Tz; [(Ti−Tz)/Tz]×100 when Ti<Tz. According to the above calculation, the GI50 value (the concentration of the test compound required when the cell growth inhibition rate was 50%) was calculated by using the 4-parameter logistic model in XLfit software.

The test system of assay [2] is human multiple myeloma cells MM.1S. Nature of the assay: Activity test on human multiple myeloma cells MM.1S (CCK-8, GI50). It counts as cell-based. To be noted: MM1.S, MM.1S cells, 48 h incubation. How it is done:
as §1, §2

The subject of assay [3] is human multiple myeloma cells KMS-11. Nature of the assay: Activity test on human multiple myeloma cells KMS-11 (CCK-8, GI50). The settings on record: KMS-11 cells, 48 h incubation. It counts as cell-based. How it is done: Cells KMS-11 (human multiple myeloma cells from JCRB ((Japanese Collection of Research Bioresources Cell Bank), AJCRB1179) were cultured to logarithmic growth phase in RPMI 1640 medium containing 10% fetal bovine serum at 37° C. and 5% CO2. The cells were inoculated into a 96-well culture plate in proper quantity per well. After being cultured at 37° C. and 5% CO2 for 24 h, solvent control DMSO or test compounds dissolved in DMSO were added to the cells, wherein the starting concentration of the test compound was 0.3 μM, and diluted 3-fold each time for a total of 6 times to obtain 6 concentration gradients. The cells were incubated with the test compounds at 37° C. and 5% CO2 for 48 h. CCK-8 reagent was added to each well and the cells were incubated at 37° C. for 2 h according to the reagent instructions, and the optical density value of each well was read with spectrophotometer at 450 nm wavelength.
The optical density value of the cell was set as Tz value when the drug had null action on the cell, which represented the cell value when the drug was added. The optical density value of the cells was set as C value after the cells were acted by solvent control DMSO for 48 h; and the optical density value of the cell was set as Ti value after the cells were acted by the test compounds for 48 h. According to the method proposed by NIH—NCI in the United States, the cell response to drugs was calculated as follows: [(Ti−Tz)/(C−Tz)]×100 when Ti≥Tz; [(Ti−Tz)/Tz]×100 when Ti<Tz. According to the above calculation, the GI50 value (the concentration of the test compound as required when the cell growth inhibition rate was […]) was calculated by using the 4-parameter logistic model in XLfit software.

For assay [4], the system named is transplantation tumor of human multiple myeloma MM.1S. Nature of the assay: Transplantation tumor model of human multiple myeloma cells MM.1S in CB17-SCID mouse, dose 0.00831 mmol/kg (Activity Experiment Example 2). The assay is classed as in vivo. The settings on record: for Relative tumor proliferation rate T/C(%): 0.00831 mmol/kg oral gavage twice a week. How it is done: The model used in this experiment was the transplantation tumor model of human multiple myeloma cells line MM.1 S in CB17-SCID mouse (purchased from Beijing Weitong Lihua Experimental Animal Technology Co., Ltd.). Cryopreserved MM.1S cells were cultured in vitro by conventionally way after resuscitation. The cells were collected in logarithmic growth phase and diluted with serum-free culture medium or PBS to form a tumor cell suspension with a concentration of 5×10^7/ml. The tumor cell suspensions prepared above were taken with a 1 ml syringe and injected subcutaneously into the left armpit backrest side of the mouse, and 0.2 ml was injected into each inoculation site. About 1 to 2 weeks after the cultured tumor cells were injected into CB17-SCID mouse, the tumors were touched under the armpit. When the tumor volume was more than 100 mm^3, the tumor volume was measured and calculated, and the mice were randomly divided into groups according to the tumor volume. The administration doses of different test samples were equivalent doses on a molar basis with a specific dose of 0.00831 mmol/kg. Administration mode and frequency: The test samples were administered by oral gavage with a volume of 10 ml/kg. The model group was given equal volume of solvent. The test samples were administered twice a week for five times (with administration dose of 0.00831 mmol/kg, i.e., the dose of MLN9708 being 4.30 mg/kg, the dose of the compound 6a being 4.67 mg/kg, and the dose of the compound 6b being 4.53 mg/kg) for a duration of 19 days. The administration was conducted on the 1st, 4th, 8th, 11th and 15th day, and the experiment was finished on the 19th day. The mental state, activity, eating and other general conditions of mice were observed every day, and the weight was measured twice a week. The short diameter (a) and long diameter (b) of each mouse tumor were measured with vernier caliper twice a week, and the tumor volume was calculated according to formula (a^2×b)/2. The relative tumor volume (RTV) was calculated according to the measured tumor volume, RTV=Vt/V0. Wherein, V0 was the tumor volume when random grouping (i.e. d0) and Vt was the tumor volume at each measurement (i.e. dn). According to the following formula, evaluation index of anti-tumor activity, the relative tumor proliferation rate T/C (%), was calculated: Note: TRTV is RTV of treatment group, and CRTV is RTV of model control group. Efficacy evaluation standard is T/C %≤40%, and after statistics procession, p<0.05 is considered significant. On the 19th day, after the tumor was weighted and measured, the mice in each group were killed, and the tumor was dissected and weighed. According to the tumor weight, the tumor inhibition rate (TGI) was calculated, TGI=((average tumor weight of model group−average tumor weight of administration group)/average tumor weight of model group)×100%.

The test system is the same in assay [5]. The experiment in a line: Transplantation tumor model of human multiple myeloma cells MM.1S in CB17-SCID mouse, low dose 0.00554 mmol/kg (Activity Experiment Example 4). The assay is classed as in vivo. To be noted: for Relative tumor proliferation rate T/C(%): 0.00554 mmol/kg oral gavage twice a week. How it is done:
The model used in this experiment was the transplantation tumor model of human multiple myeloma cells line MM.1S in CB17-SCID mouse. Cryopreserved MM.1S cells were cultured in vitro conventionally after resuscitation. The cells were collected in logarithmic growth phase and diluted with serum-free culture medium or PBS to form a tumor cell suspension with a concentration of 5×10^7/ml. The tumor cell suspensions prepared above were taken with a 1 ml syringe and injected subcutaneously into the left armpit backrest side of the mouse, and 0.2 ml was injected into each inoculation site. About 1 to 2 weeks after the cultured tumor cells were injected into the CB17-SCID mouse, the tumors were touched under the armpit. When the tumor volume was more than 100 mm^3, the tumor volume was measured and calculated, and the mice were randomly divided into groups according to the tumor volume. The administration doses of different test samples were equivalent doses on a molar basis with a specific dose of 0.00554 mmol/kg. Administration mode and frequency: the test samples were administered by oral gavage with a volume of 10 ml/kg. The model group was given equal volume of solvent. The test samples were administered twice a week for five times with an administration dose of 0.00554 mmol/kg, i.e., the dose of MLN9708 being 2.86 mg/kg, the dose of the compound 6q being 2.77 mg/kg, the dose of the compound 6f being 2.80 mg/kg, and the dose of the compound 6b being 3.02 mg/kg, for a duration of 17 days. The administration was conducted on the 1st, 5th, 8th, 12th and 15th day, and the experiment was finished on the 17th day. The mental state, activity, eating and other general conditions of mice were observed every day, and the weight was measured twice a week. The short diameter (a) and long diameter (b) of each mouse tumor were measured with a vernier caliper twice a week, and the tumor volume was calculated according to formula (a^2×b)/2. The relative tumor volume (RTV) was calculated according to the measured tumor volume, RTV=Vt/V0. Wherein, V0 was the tumor volume when random grouping (i.e. d0) and Vt was the tumor volume at each measurement (i.e. […]). According to the following formula, evaluation index of anti-tumor activity relative to the relative tumor proliferation rate T/C (%) was calculated: Note: TRTV is RTV of treatment group, and CRTV is RTV of model control group. According to “Technical Guidelines for Non-clinical Research of Cytotoxic Antitumor Drugs” issued by State Food and Drug Administration in China, the evaluation standard is T/C %≤40%, and after statistics procession, p<0.05 is considered significant. On the 19th day, after the tumor was weighted and measured, the mice in each group were killed, and the tumor was dissected and weighed. According to the tumor weight, the tumor inhibition rate (TGI) was calculated, TGI=((average tumor weight of model group−average tumor weight of administration group)/average tumor weight of model group)×100%.

Molecules are shown by their SMILES. Where a name gives a salt, the structure may show the parent alone.

`CC(C)C[C@H](NC(=O)CNC(=O)c1cc(Cl)ccc1Cl)B1OC(=O)C(CC(=O)O)(CC(=O)O)O1` [drawing 63]: the figures for the GI50 in assay [1] and in assay [2] were 0.0122 µM and 0.0128 µM, respectively.

In assay [3], `CC(C)C[C@H](NC(=O)CNC(=O)c1cc(Cl)ccc1F)B1OC(=O)C(CC(=O)O)(CC(=O)O)O1` [drawing 71] displayed a GI50 of 59 nM.

`CC(C)C[C@H](NC(=O)CNC(=O)c1cc(Br)ccc1F)B1OC(=O)C(CC(=O)O)(CC(=O)O)O1` [drawing 66] came in with a GI50 in assay [3] of 39.7 nM.

In assay [3], `CC(C)C[C@H](NC(=O)CNC(=O)c1cc(C(F)(F)F)ccc1F)B1OC(=O)C(CC(=O)O)(CC(=O)O)O1` [drawing 67] showed a GI50 of 57.8 nM. This GI50 and that of the compound before are within 1.5-fold of each other.

Compound `CC(C)C[C@H](NC(=O)CNC(=O)c1cc(Br)ccc1F)B1OC(=O)c2ccccc2O1` gave a GI50 in assay [3] of 34.1 nM.

The compound `Cc1ccc(F)c(C(=O)NCC(=O)N[C@@H](CC(C)C)B2OC(=O)C(CC(=O)O)(CC(=O)O)O2)c1` registered a GI50 in assay [3] of 90.5 nM.

In assay [3], `CC(C)C[C@H](NC(=O)CNC(=O)c1cc(Br)ccc1F)B1OC(=O)C(c2ccccc2)O1` (some centres unmarked) [drawing 69] gave a GI50 of 29.9 nM.

Turning to `CC(C)C[C@H](NC(=O)CNC(=O)c1cc(F)ccc1Br)B1OC(=O)C(CC(=O)O)(CC(=O)O)O1` [drawing 64], the values for the GI50 in assay [1] and in assay [2] were 0.0134 µM and 0.012 µM, respectively.

As for `CC(C)C[C@H](NC(=O)CNC(=O)c1cc(F)ccc1Br)B1OC(=O)C(CC(=O)O)(CC(=O)O)O1` [drawing 70], growth in assay [3] was halved (GI50) at 35.7 nM.

The compound `CC(C)C[C@H](NC(=O)CNC(=O)c1cc(F)ccc1F)B1OC(=O)C(CC(=O)O)(CC(=O)O)O1` gave a GI50 in assay [3] of 87.8 nM.

For the compound `CC(C)C[C@H](NC(=O)CNC(=O)c1cc(C(F)(F)F)ccc1F)B1OC(=O)C(CC(=O)O)(CC(=O)O)O1` [drawing 62], the values for the GI50 in assay [1] and in assay [2] were 0.0182 µM and 0.026 µM, respectively.

Take `CC(C)C[C@H](NC(=O)CNC(=O)c1cc(Br)ccc1Cl)B1OC(=O)C(CC(=O)O)(CC(=O)O)O1` [drawing 60]: the GI50 in assay [1] turned out to be 0.0107 µM; in assay [2] it was 0.0133 µM.

In assay [3], `CC(C)C[C@H](NC(=O)CNC(=O)c1cc(Br)ccc1F)B(O)O` registered a GI50 of 35.7 nM.

For `CC(C)C[C@H](NC(=O)CNC(=O)c1cc(Cl)ccc1Cl)B1OC(=O)C(CC(=O)O)(CC(=O)O)O1` [MLN9708, Ixazomib Citrate, reference compound], in assay [4] (X ± SD, tumor dissected on day 19, 0.00831 mmol/kg oral gavage, five doses), the “tumor weight (g)” value is listed as 1.782 ± 1.361^★★▴▴ g. Further, the “Relative tumor proliferation rate T/C(%)” value came out at 84.97% in assay [4] (day 4); 59.75% in assay [4] (day 8); 51.05% in assay [4] (day 11); 41.67% in assay [4] (day 15); 56.1% in assay [4] (day 19); 90.08% in assay [5] (day 5). Besides, the “Relative tumor proliferation rate T/C(%)” value in assay [5] (day 8) worked out at 112.42%; in assay [5] (day 12), 137.07%; in assay [5] (day 15) it was 97.25%; in assay [5] (day 17) it was 84.29%. Besides, the “tumor inhibition rate (%)” value in assay [4] (from tumor weight, day 19, 0.00831 mmol/kg oral gavage, five doses) was 50.69%; in assay [5] (from tumor weight at end of experiment, 0.00554 mmol/kg oral gavage, five doses), −0.48%. In addition, the “inhibition of tumor growth (in words)” value in assay [5] (0.00554 mmol/kg oral gavage) is “no effect on inhibiting tumor growth”. Besides, the “inhibitory effect sequence on transplantation tumor growth from strong to weak” value in assay [5] (0.00554 mmol/kg oral gavage) was 6b>6f>6q>MLN9708. The “tumor weight” value in assay [5] (X ± SD, tumor dissected at end of experiment, 0.00554 mmol/kg oral gavage, five doses) is reported as 2.953 ± 0.668 g.

On to `CC(C)C[C@H](NC(=O)CNC(=O)c1cc(Br)ccc1F)B1OC(=O)C(CC(=O)O)(CC(=O)O)O1` [drawing 61], for which the GI50 in assay [1] came out at 0.012 µM; in assay [2] it was 0.0112 µM.

As usually defined, the GI50 is the concentration giving 50% growth inhibition. Read a low GI50 as more potent growth inhibition.
